Measured values: ChEMBL document CHEMBL1147276, “Novel Acetylenic Acids from the Root Bark of Paramacrolobium caeruleum: Inhibitors of 3-Hydroxy-3-methyl-glutaryl Coenzyme A Reductase” (J Nat Prod, 1989)

Target: T1, 3-hydroxy-3-methylglutaryl-coenzyme A reductase (Homo sapiens, UniProt P04035)
T1 sequence (P04035 whole entry): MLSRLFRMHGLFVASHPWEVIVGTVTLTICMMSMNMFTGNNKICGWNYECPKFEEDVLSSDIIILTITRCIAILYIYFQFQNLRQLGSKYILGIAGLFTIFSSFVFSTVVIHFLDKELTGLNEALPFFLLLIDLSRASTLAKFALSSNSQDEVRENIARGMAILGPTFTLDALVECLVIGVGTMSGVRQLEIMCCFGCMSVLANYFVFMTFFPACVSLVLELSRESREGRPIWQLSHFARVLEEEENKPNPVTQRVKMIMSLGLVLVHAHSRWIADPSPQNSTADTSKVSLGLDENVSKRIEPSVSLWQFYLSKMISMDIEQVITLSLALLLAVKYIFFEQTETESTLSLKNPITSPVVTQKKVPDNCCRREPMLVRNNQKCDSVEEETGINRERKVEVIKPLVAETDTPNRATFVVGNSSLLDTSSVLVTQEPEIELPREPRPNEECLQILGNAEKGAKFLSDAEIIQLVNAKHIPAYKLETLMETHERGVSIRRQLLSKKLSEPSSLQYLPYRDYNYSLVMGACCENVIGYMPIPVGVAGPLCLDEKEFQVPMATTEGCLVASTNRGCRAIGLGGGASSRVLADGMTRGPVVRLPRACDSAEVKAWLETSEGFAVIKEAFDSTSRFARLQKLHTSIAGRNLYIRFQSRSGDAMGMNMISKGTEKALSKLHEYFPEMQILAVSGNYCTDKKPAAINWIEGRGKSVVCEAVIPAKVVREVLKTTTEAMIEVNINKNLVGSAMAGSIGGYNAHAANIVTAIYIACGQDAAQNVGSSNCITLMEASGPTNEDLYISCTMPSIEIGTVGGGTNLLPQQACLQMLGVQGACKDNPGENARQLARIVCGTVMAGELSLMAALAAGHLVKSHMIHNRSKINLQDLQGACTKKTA
Assay: Inhibition of human HMGCoA reductase; call rule not given here

SMILES | IC50 (read-out: IC50) [µM] | IC50
CCCCCCCCC#CC#CC1OC1CCCC(=O)O (centres undefined) | 5 | 
CCCCCCCCCCCCCCCCCC(=O)O [STEARIC ACID] |  | Not Active
CCCCCCCC/C=C\CCCCCCCC(=O)O [OLEIC ACID] |  | Not Active
CCCCCCCCC#CC#C/C=C\CCCC(=O)O | 1.5 | 
CCCCCCCCC#CC#C/C=C/CCCC(=O)O | 0.5 | 

Continued, in another order:

IC50 (read-out: IC50) [µM] | SMILES | IC50
5 | CCCCCCCCC#CCCCCCCCC(=O)O | 
3 | CCCCC#CC#CCCCCCC(=O)O | 
7 | CCCCCCCCC#CC#CC(O)CCCCC(=O)O (centres undefined) | 
5 | CCCCCCCCC#CC#CCCCCCC(=O)O | 
